Measured values published in ChEMBL document CHEMBL5233262, “Anti-inflammatory activity of naturally occuring diarylheptanoids - A review” (Bioorg Med Chem, 2021).
Blank lines part the entries; values can stand above or below the molecule they belong to.

Tests used:
Hepatocyte [1] = assay: Hepatoprotective activity against CCL4-induced rat hepatocyte toxicity assessed as decrease in TNF-alpha level at 1 uM preincubated for 30 mins followed by CCL4 addition and measured after 180 mins by ELISA; format: functional; design: scale not given: the % may be the effect or the level left; conditions: time 210 min
Hepatocyte [2] = assay: Hepatoprotective activity against CCL4-induced rat hepatocyte toxicity assessed as decrease in TBARS level by measuring MDA formation at 1 uM preincubated for 30 mins followed by CCL4 addition and measured after 180 mins by TBARS method; format: functional; design: scale not given: the % may be the effect or the level left; conditions: time 210 min
Hepatocyte [3] = assay: Hepatoprotective activity against CCL4-induced rat hepatocyte toxicity assessed as decrease in ALT level at 1 uM preincubated for 30 mins followed by CCL4 addition and measured after 180 mins by colorimetric method; format: functional; design: scale not given: the % may be the effect or the level left; conditions: time 210 min
Hepatocyte [4] = assay: Hepatoprotective activity against CCL4-induced rat hepatocyte toxicity assessed as decrease in IL-1beta level at 1 uM preincubated for 30 mins followed by CCL4 addition and measured after 180 mins by ELISA; format: functional; design: scale not given: the % may be the effect or the level left; conditions: time 210 min
RAW264.7 [5] = assay: Antiinflammatory activity in mouse RAW264.7 cells assessed as inhibition of LPS-induced IL-6 production at 10 uM preincubated for 2 hrs followed by LPS stimulation and measured after 24 hrs by ELISA; format: functional; conditions: time 26 hrs
RAW264.7 [6] = assay: Antiinflammatory activity in mouse RAW264.7 cells assessed as inhibition of LPS-induced NO production at 30 uM preincubated for 2 hrs followed by LPS stimulation and measured after 24 hrs by Griess method; format: functional; conditions: time 26 hrs
RAW264.7 [7] = assay: Antiinflammatory activity in mouse RAW264.7 cells assessed as inhibition of LPS-induced NO production at 100 uM preincubated for 2 hrs followed by LPS stimulation and measured after 24 hrs by Griess method; format: functional; conditions: time 26 hrs
RAW264.7 [8] = assay: Antiinflammatory activity in mouse RAW264.7 cells assessed as inhibition of LPS-induced TNFalpha production at 100 uM preincubated for 2 hrs followed by LPS stimulation and measured after 24 hrs by ELISA; format: functional; conditions: time 26 hrs
RAW264.7 [9] = assay: Antiinflammatory activity in mouse RAW264.7 cells assessed as inhibition of LPS-induced NO production at 3 uM preincubated for 2 hrs followed by LPS stimulation and measured after 24 hrs by Griess method; format: functional; conditions: time 26 hrs
RAW264.7 [10] = assay: Antiinflammatory activity in mouse RAW264.7 cells assessed as inhibition of LPS-induced IL-6 production at 30 uM preincubated for 2 hrs followed by LPS stimulation and measured after 24 hrs by ELISA; format: functional; conditions: time 26 hrs
RAW264.7 [11] = assay: Antiinflammatory activity in mouse RAW264.7 cells assessed as inhibition of LPS-induced TNFalpha production at 3 uM preincubated for 2 hrs followed by LPS stimulation and measured after 24 hrs by ELISA; format: functional; conditions: time 26 hrs
RAW264.7 [12] = assay: Antiinflammatory activity in mouse RAW264.7 cells assessed as inhibition of LPS-induced TNFalpha production at 30 uM preincubated for 2 hrs followed by LPS stimulation and measured after 24 hrs by ELISA; format: functional; conditions: time 26 hrs
RAW264.7 [13] = assay: Antiinflammatory activity in mouse RAW264.7 cells assessed as inhibition of LPS-induced NO production at 10 uM preincubated for 2 hrs followed by LPS stimulation and measured after 24 hrs by Griess method; format: functional; conditions: time 26 hrs
RAW264.7 [14] = assay: Antiinflammatory activity in mouse RAW264.7 cells assessed as inhibition of LPS-induced IL-6 production at 3 uM preincubated for 2 hrs followed by LPS stimulation and measured after 24 hrs by ELISA; format: functional; conditions: time 26 hrs
RAW264.7 [15] = assay: Antiinflammatory activity in mouse RAW264.7 cells assessed as inhibition of LPS-induced IL-6 production at 100 uM preincubated for 2 hrs followed by LPS stimulation and measured after 24 hrs by ELISA; format: functional; conditions: time 26 hrs
RAW264.7 [16] = assay: Antiinflammatory activity in mouse RAW264.7 cells assessed as inhibition of LPS-induced TNFalpha production at 10 uM preincubated for 2 hrs followed by LPS stimulation and measured after 24 hrs by ELISA; format: functional; conditions: time 26 hrs
RAW264.7 [17] = assay: Antiinflammatory activity in mouse RAW264.7 cells assessed as inhibition of LPS-induced IL-1beta production; format: functional, cell-based
RAW264.7 [18] = assay: Antiinflammatory activity in mouse RAW264.7 cells assessed as inhibition of LPS-induced TNF-alpha production; format: functional, cell-based
RAW264.7 [19] = assay: Antiinflammatory activity in mouse RAW264.7 cells assessed as inhibition of LPS-induced IL-6 production; format: functional, cell-based
Mus musculus = assay: Antiinflammatory activity in ICR mouse model of TPA-induced ear edema assessed as inhibition of ear inflammation at 1 mg,TOP for 30 mins followed by TPA addition and measured after 6 hrs; format: functional; conditions: time 390 min, 6.5 h
Rattus norvegicus = assay: Antiinflammatory activity in rat model of carrageenan-induced hind paw edema assessed as reduction in paw thickness at 100 mg/kg,ip 30mins before carrageenin exposure and measured after 3 hrs; format: functional; design: scale not given: the % may be the effect or the level left

SMILES: COc1cc(CCC(=O)CCCCc2ccc(O)c(O)c2)ccc1O
Activity (Hepatocyte [1]): 43.8% | Activity (Hepatocyte [2]): 60.4% | Activity (Hepatocyte [3]): 56.3% | Activity (Hepatocyte [4]): 58.8%

SMILES: COc1cc(CC[C@@H](C[C@H](O)[C@@H](O)Cc2ccc(O)cc2)O[C@@H]2OC[C@@H](O)[C@H](O)[C@H]2O)ccc1O
inhibition at 10 µM (RAW264.7 [5]): 43% | inhibition at 30 µM (RAW264.7 [6]): 39% | inhibition at 100 µM (RAW264.7 [7]): 39% | inhibition at 100 µM (RAW264.7 [8]): 36% | inhibition at 3 µM (RAW264.7 [9]): 39% | inhibition at 30 µM (RAW264.7 [10]): 43% | inhibition at 3 µM (RAW264.7 [11]): 36% | inhibition at 30 µM (RAW264.7 [12]): 36% | inhibition at 10 µM (RAW264.7 [13]): 39% | inhibition at 3 µM (RAW264.7 [14]): 43% | inhibition at 100 µM (RAW264.7 [15]): 43% | inhibition at 10 µM (RAW264.7 [16]): 36%

IC50 (RAW264.7 [17]): 17.9 µM | IC50 (RAW264.7 [18]): 19.5 µM | IC50 (RAW264.7 [19]): 20.3 µM
SMILES: COc1cc2cc(c1O)-c1cc(ccc1O)CC[C@H](O)CCCC2

SMILES: O=c1c(O)c(-c2ccc(O)c(O)c2)oc2cc(O)cc(O)c12 [QUERCETIN]
IC50 (RAW264.7 [17]): 16.9 µM | ID50 (Mus musculus): 1.6 mg | IC50 (RAW264.7 [18]): 13.6 µM | IC50 (RAW264.7 [19]): 16.8 µM

SMILES: CC(=O)Oc1ccccc1C(=O)O [ASPIRIN]
Activity (Rattus norvegicus): 80%

IC50 (RAW264.7 [17]): 22.9 µM | IC50 (RAW264.7 [18]): 20.1 µM | IC50 (RAW264.7 [19]): 22.7 µM
SMILES: COc1cc2cc(c1O)-c1cc(ccc1O)CC[C@H](OS(=O)(=O)O)CCCC2
